Assay results taken from ChEMBL document CHEMBL3396981, “Synthesis and in vitro biological evaluation of 2-(phenylcarbamoyl)phenyl 4-substituted benzoates” (Bioorg Med Chem, 2015).
In brackets after ≈: the same amount, converted by molar mass.

Experiments:
[1] = Selectivity index, ratio of IC50 for human HepG2 cells to MIC for atypical mycobacteria
[2] = tested on: Mycobacterium avium; experiment: Antimycobacterial activity against INH,RIF,OFX,EMB-resistant Mycobacterium avium 330/88 after 14 days by microdilution method; type: functional; settings: 330/88, 336 h
[3] = Selectivity index, ratio of IC50 for human HepG2 cells to MIC for Mycobacterium tuberculosis; type: toxicity, cell-based; settings: read-out: Selectivity Index
[4] = tested on: Mycobacterium kansasii; experiment: Antimycobacterial activity against Mycobacterium kansasii 6509/96 after 14 days by microdilution method; type: functional; settings: 6509/96, 336 h
[5] = tested on: Mycobacterium kansasii; experiment: Antimycobacterial activity against Mycobacterium kansasii 235/80 after 7 days by microdilution method; type: functional; settings: 235/80, 168 h
[6] = tested on: Mycobacterium avium; experiment: Antimycobacterial activity against INH,RIF,OFX,EMB-resistant Mycobacterium avium 330/88 after 21 days by microdilution method; type: functional; settings: 330/88, 504 h
[7] = tested on: Mycobacterium tuberculosis; experiment: Antimycobacterial activity against Mycobacterium tuberculosis H37Rv 331/88 after 14 days by microdilution method; type: functional; settings: H37Rv 331/88, 336 h
[8] = tested on: Mycobacterium kansasii; experiment: Antimycobacterial activity against Mycobacterium kansasii 6509/96 after 21 days by microdilution method; type: functional; settings: 6509/96, 504 h
[9] = tested on: Mycobacterium kansasii; experiment: Antimycobacterial activity against Mycobacterium kansasii 235/80 after 21 days by microdilution method; type: functional; settings: 235/80, 504 h
[10] = tested on: Mycobacterium tuberculosis; experiment: Antimycobacterial activity against Mycobacterium tuberculosis H37Rv 331/88 after 21 days by microdilution method; type: functional; settings: H37Rv 331/88, 504 h
[11] = tested on: Mycobacterium kansasii; experiment: Antimycobacterial activity against Mycobacterium kansasii 6509/96 after 7 days by microdilution method; type: functional; settings: 6509/96, 168 h
[12] = tested on: Mycobacterium kansasii; experiment: Antimycobacterial activity against Mycobacterium kansasii 235/80 after 14 days by microdilution method; type: functional; settings: 235/80, 336 h
[13] = tested on: HepG2; experiment: Cytostatic activity against human HepG2 cells after 72 hrs by MTT assay; type: functional, cell-based; settings: HepG2, 72 h
[14] = tested on: HepG2; experiment: Cytotoxicity against human HepG2 cells after 72 hrs by MTT assay; type: cell-based; settings: HepG2, 72 h
[15] = tested on: Staphylococcus epidermidis; experiment: Antibacterial activity against Staphylococcus epidermidis H 6966/08 after 24 hrs by broth microdilution method; type: functional; settings: H 6966/08, 24 h
[16] = tested on: Staphylococcus aureus; experiment: Antibacterial activity against methicillin-resistant Staphylococcus aureus H 5996/08 after 24 hrs by broth microdilution method; type: functional; settings: H 5996/08, 24 h
[17] = tested on: Staphylococcus aureus; experiment: Antibacterial activity against Staphylococcus aureus CCM 4516/08 after 24 hrs by broth microdilution method; type: functional; settings: CCM 4516/08, 24 h
[18] = tested on: Staphylococcus aureus; experiment: Antibacterial activity against methicillin-resistant Staphylococcus aureus H 5996/08 after 48 hrs by broth microdilution method; type: functional; settings: H 5996/08, 48 h
[19] = tested on: Trichosporon asahii; experiment: Antifungal activity against Trichosporon asahii 1188 after 48 hrs by broth microdilution method; type: functional; settings: Trichosporon asahii, 1188, 48 h
[20] = tested on: Trichosporon asahii; experiment: Antifungal activity against Trichosporon asahii 1188 after 24 hrs by broth microdilution method; type: functional; settings: Trichosporon asahii, 1188, 24 h
[21] = tested on: Enterococcus sp.; experiment: Antibacterial activity against Enterococcus sp. J 14365/08 after 48 hrs by broth microdilution method; type: functional; settings: J 14365/08, 48 h
[22] = tested on: Staphylococcus epidermidis; experiment: Antibacterial activity against Staphylococcus epidermidis H 6966/08 after 48 hrs by broth microdilution method; type: functional; settings: H 6966/08, 48 h
[23] = tested on: Staphylococcus aureus; experiment: Antibacterial activity against Staphylococcus aureus CCM 4516/08 after 48 hrs by broth microdilution method; type: functional; settings: CCM 4516/08, 48 h
[24] = tested on: Enterococcus sp.; experiment: Antibacterial activity against Enterococcus sp. J 14365/08 after 24 hrs by broth microdilution method; type: functional; settings: J 14365/08, 24 h

Row | SMILES | Selectivity Index [1] | MIC [2] [µM] | selectivity ratio [3] | MIC [4] [µM] | MIC [5] [µM] | MIC [6] [µM] | MIC [7] [µM] | MIC [8] [µM] | MIC [9] [µM] | MIC [10] [µM] | MIC [11] [µM] | MIC [12] [µM] | IC50 [13] [µM] | IC50 [14] [µM] | other results
1 | Nc1ccc(C(=O)O)c(O)c1 [AMINOSALICYLIC ACID] | <2.2 | 32 (≈ 4.9 µg/mL) | 35.8 | 125 (≈ 19.1 µg/mL) | 125 (≈ 19.1 µg/mL) | 125 (≈ 19.1 µg/mL) | 62.5 (≈ 9.57 µg/mL) | 500 (≈ 76.6 µg/mL) | > 1000 | 62.5 (≈ 9.57 µg/mL) | 32 (≈ 4.9 µg/mL) | 1000 (≈ 153 µg/mL) | – | – | –
2 | O=C(Oc1ccc(Cl)cc1C(=O)Nc1ccc(C(F)(F)F)cc1)c1ccc([N+](=O)[O-])cc1 | >12.5 | 4 (≈ 1.86 µg/mL) | > 50 | 2 (≈ 0.93 µg/mL) | 1 (≈ 0.465 µg/mL) | 4 (≈ 1.86 µg/mL) | 0.5 (≈ 0.232 µg/mL) | 4 (≈ 1.86 µg/mL) | 4 (≈ 1.86 µg/mL) | 1 (≈ 0.465 µg/mL) | 1 (≈ 0.465 µg/mL) | 2 (≈ 0.93 µg/mL) | 1.15 | > 50 | –
3 | Cc1ccc(C(=O)Oc2ccc(Cl)cc2C(=O)Nc2ccc(C(F)(F)F)cc2)cc1 | >12.5 | 4 (≈ 1.74 µg/mL) | > 100 | 2 (≈ 0.868 µg/mL) | 1 (≈ 0.434 µg/mL) | 4 (≈ 1.74 µg/mL) | 0.5 (≈ 0.217 µg/mL) | 2 (≈ 0.868 µg/mL) | 2 (≈ 0.868 µg/mL) | 0.5 (≈ 0.217 µg/mL) | 1 (≈ 0.434 µg/mL) | 1 (≈ 0.434 µg/mL) | 6.9 | > 50 | MIC [15]: > 250 µM; MIC [16]: > 250 µM; MIC [17]: > 250 µM; MIC [18]: > 250 µM; MIC [19]: > 250 µM; MIC [20]: > 250 µM; MIC [21]: > 250 µM; MIC [22]: > 250 µM; MIC [23]: > 250 µM; MIC [24]: > 250 µM
4 | Cc1ccc(C(=O)Oc2ccc(Cl)cc2C(=O)Nc2ccc(Cl)c(Cl)c2)cc1 | >6.25 | 8 (≈ 3.48 µg/mL) | > 50 | 4 (≈ 1.74 µg/mL) | 1 (≈ 0.435 µg/mL) | 8 (≈ 3.48 µg/mL) | 1 (≈ 0.435 µg/mL) | 4 (≈ 1.74 µg/mL) | 2 (≈ 0.869 µg/mL) | 1 (≈ 0.435 µg/mL) | 2 (≈ 0.869 µg/mL) | 2 (≈ 0.869 µg/mL) | 2.55 | > 50 | –
5 | O=C(Oc1ccc(Cl)cc1C(=O)Nc1ccc(Cl)c(Cl)c1)c1ccc(C(F)(F)F)cc1 | – | 4 (≈ 1.95 µg/mL) | – | 2 (≈ 0.977 µg/mL) | 1 (≈ 0.489 µg/mL) | 4 (≈ 1.95 µg/mL) | 1 (≈ 0.489 µg/mL) | 4 (≈ 1.95 µg/mL) | 4 (≈ 1.95 µg/mL) | 1 (≈ 0.489 µg/mL) | 1 (≈ 0.489 µg/mL) | 2 (≈ 0.977 µg/mL) | – | – | –
6 | O=C(Oc1ccc(Cl)cc1C(=O)Nc1ccc(C(F)(F)F)cc1)c1ccccc1 | – | 4 (≈ 1.68 µg/mL) | – | 2 (≈ 0.84 µg/mL) | 1 (≈ 0.42 µg/mL) | 4 (≈ 1.68 µg/mL) | 0.5 (≈ 0.21 µg/mL) | 2 (≈ 0.84 µg/mL) | 1 (≈ 0.42 µg/mL) | 1 (≈ 0.42 µg/mL) | 2 (≈ 0.84 µg/mL) | 1 (≈ 0.42 µg/mL) | – | – | –
7 | O=C(Oc1ccc(Cl)cc1C(=O)Nc1ccc(C(F)(F)F)cc1)c1ccc(Br)cc1 | >12.5 | 4 (≈ 1.99 µg/mL) | > 50 | 2 (≈ 0.997 µg/mL) | 0.5 (≈ 0.249 µg/mL) | 4 (≈ 1.99 µg/mL) | 1 (≈ 0.499 µg/mL) | 2 (≈ 0.997 µg/mL) | 1 (≈ 0.499 µg/mL) | 1 (≈ 0.499 µg/mL) | 1 (≈ 0.499 µg/mL) | 1 (≈ 0.499 µg/mL) | 14.5 | > 50 | –
8 | Cc1ccc(C(=O)Oc2ccc(Br)cc2C(=O)Nc2ccc(C(F)(F)F)cc2)cc1 | >6.25 | 4 (≈ 1.91 µg/mL) | > 50 | 2 (≈ 0.957 µg/mL) | 1 (≈ 0.478 µg/mL) | 8 (≈ 3.83 µg/mL) | 1 (≈ 0.478 µg/mL) | 4 (≈ 1.91 µg/mL) | 2 (≈ 0.957 µg/mL) | 1 (≈ 0.478 µg/mL) | 2 (≈ 0.957 µg/mL) | 2 (≈ 0.957 µg/mL) | 26.8 | > 50 | MIC [15]: > 125 µM; MIC [16]: > 125 µM; MIC [17]: > 125 µM; MIC [18]: > 125 µM; MIC [19]: > 125 µM; MIC [20]: > 125 µM; MIC [21]: > 125 µM; MIC [22]: > 125 µM; MIC [23]: > 125 µM; MIC [24]: > 125 µM
9 | O=C(Oc1ccc(Br)cc1C(=O)Nc1ccc(C(F)(F)F)cc1)c1ccc(C(F)(F)F)cc1 | – | 2 (≈ 1.06 µg/mL) | – | 2 (≈ 1.06 µg/mL) | 1 (≈ 0.532 µg/mL) | 4 (≈ 2.13 µg/mL) | 1 (≈ 0.532 µg/mL) | 4 (≈ 2.13 µg/mL) | 4 (≈ 2.13 µg/mL) | 1 (≈ 0.532 µg/mL) | 1 (≈ 0.532 µg/mL) | 2 (≈ 1.06 µg/mL) | – | – | –
